Several values for one entry are separate records, joined by “and”; a condition that tells them apart may be missing. Equal values may be shown once. Toxic doses and inconclusive results are not listed. No stated cut-off is given here; in the data, active means T/C of 150% or more; inactive means T/C below 125%.
System: L1210 leukemia ip in BDF1 mice, survival T/C
Assay: NCI In Vivo Anticancer Drug Screen. Data for tumor model L1210 Leukemia (intraperitoneal) in B6D2F1 (BDF1) mice
Conditions: endpoint: mean survival time, higher = longer survival
In short: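 Transplanted-tumor mice were given test agent; controls received vehicle only. Survival readings from the two groups were divided (treated over control).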

[1] = dose: 100.0 mg/kg/injection, schedule: Q04DX002 (ip), vehicle: saline with Tween-80
[2] = dose: 100.0 mg/kg/injection, schedule: Q01DX001 (ip), vehicle: saline
[3] = dose: 100.0 mg/kg/injection, schedule: Q04DX003 (ip), vehicle: saline
[4] = dose: 200.0 mg/kg/injection, schedule: Q01DX001 (ip), vehicle: saline
[5] = dose: 200.0 mg/kg/injection, schedule: Q04DX003 (ip), vehicle: saline
[6] = dose: 400.0 mg/kg/injection, schedule: Q01DX001 (ip), vehicle: saline
[7] = dose: 400.0 mg/kg/injection, schedule: Q04DX003 (ip), vehicle: saline
[8] = dose: 50.0 mg/kg/injection, schedule: Q04DX003 (ip), vehicle: saline
[9] = dose: 50.0 mg/kg/injection, schedule: Q01DX009 (ip), vehicle: saline with Tween-80
[10] = dose: 100.0 mg/kg/injection, schedule: Q01DX009 (ip), vehicle: saline with Tween-80
[11] = dose: 100.0 mg/kg/injection, schedule: Q01DX009 (ip), vehicle: Klucel (hydroxypropylcellulose) (HPC)
[12] = dose: 200.0 mg/kg/injection, schedule: Q01DX009 (ip), vehicle: Klucel (hydroxypropylcellulose) (HPC)
[13] = dose: 400.0 mg/kg/injection, schedule: Q01DX009 (ip), vehicle: Klucel (hydroxypropylcellulose) (HPC)
[14] = dose: 100.0 mg/kg/injection, schedule: Q04DX003 (ip), vehicle: Klucel (hydroxypropylcellulose) (HPC)
[15] = dose: 200.0 mg/kg/injection, schedule: Q04DX003 (ip), vehicle: Klucel (hydroxypropylcellulose) (HPC)

Measured: T/C

CC(=O)OC(C)(C)/C=C/C(=O)C(C)(O)C1C(O)CC2(C)C3CC=C4C(C=C(OC5OC(CO)C(O)C(O)C5O)C(=O)C4(C)C)C3(C)C(=O)CC12C (configuration not stated)
inactive: dose: 25.0 mg/kg/injection, schedule: Q04DX002 (ip), vehicle: saline with Tween-80 98 % of control | dose: 50.0 mg/kg/injection, schedule: Q04DX002 (ip), vehicle: saline with Tween-80 98 % of control | [1] 96 % of control and 105 % of control

COc1ccc(C(O)(CNCc2ccccc2)c2ccccc2)cc1 (configuration not stated)
inactive: dose: 100.0 mg/kg/injection, schedule: Q01DX001 (ip), vehicle: saline with Tween-80 97 % of control

O=C1NCCCC1O (configuration not stated)
inactive: dose: 50.0 mg/kg/injection, schedule: Q01DX001 (ip), vehicle: carboxymethylcellulose (CMC) 94 % of control | dose: 100.0 mg/kg/injection, schedule: Q01DX001 (ip), vehicle: carboxymethylcellulose (CMC) 89 % of control | dose: 200.0 mg/kg/injection, schedule: Q01DX001 (ip), vehicle: carboxymethylcellulose (CMC) 105 % of control | dose: 400.0 mg/kg/injection, schedule: Q01DX001 (ip), vehicle: carboxymethylcellulose (CMC) 103 % of control

NC(=O)N/N=C\c1ccc(O)cn1
inactive: dose: 100.0 mg/kg/injection, schedule: Q04DX003 (ip), vehicle: acetone 98 % of control | dose: 200.0 mg/kg/injection, schedule: Q04DX003 (ip), vehicle: acetone 93 % of control | dose: 400.0 mg/kg/injection, schedule: Q04DX003 (ip), vehicle: acetone 96 % of control

CCOCc1cn(CCCc2ccccc2)c(=O)[nH]c1=O
inactive: dose: 12.5 mg/kg/injection, schedule: Q04DX002 (ip), vehicle: Klucel (hydroxypropylcellulose) (HPC) 106 % of control | dose: 25.0 mg/kg/injection, schedule: Q04DX002 (ip), vehicle: Klucel (hydroxypropylcellulose) (HPC) 102 % of control | dose: 50.0 mg/kg/injection, schedule: Q04DX002 (ip), vehicle: Klucel (hydroxypropylcellulose) (HPC) 106 % of control

Cc1ccc(Cl)cc1NC(=S)N(C)C
inactive: [1] 98 % of control | dose: 200.0 mg/kg/injection, schedule: Q04DX002 (ip), vehicle: saline with Tween-80 98 % of control

CCOC(=O)Oc1ccc(Br)cc1Br
inactive: [2] 104 % of control | dose: 100.0 mg/kg/injection, schedule: Q01DX009 (ip), vehicle: carboxymethylcellulose (CMC) 93 % of control and 96 % of control | dose: 100.0 mg/kg/injection, schedule: Q04DX002 (ip), vehicle: saline 99 % of control | [3] 103 % of control | [4] 102 % of control | dose: 200.0 mg/kg/injection, schedule: Q01DX009 (ip), vehicle: carboxymethylcellulose (CMC) 94 % of control and 97 % of control | dose: 200.0 mg/kg/injection, schedule: Q04DX002 (ip), vehicle: saline 92 % of control | [5] 95 % of control | [6] 104 % of control | dose: 400.0 mg/kg/injection, schedule: Q01DX009 (ip), vehicle: carboxymethylcellulose (CMC) 92 % of control and 93 % of control | dose: 400.0 mg/kg/injection, schedule: Q04DX002 (ip), vehicle: saline 104 % of control | [7] 102 % of control

COC(=O)CSC/C(=N\Nc1ccccc1)c1ccccc1
inactive: [8] 106 % of control | [2] 104 % of control | [3] 94 % of control | [4] 98 % of control | [5] 97 % of control | [6] 93 % of control | [7] 89 % of control

CNC(=O)Nc1ccc(Cl)cn1
inactive: dose: 25.0 mg/kg/injection, schedule: Q01DX009 (ip), vehicle: saline with Tween-80 100 % of control | [9] 97 % of control | [10] 98 % of control and 103 % of control

CC(CN(C)C)CN1c2ccccc2C(C)(C)c2ccccc21 (configuration not stated)
inactive: dose: 13.8 mg/kg/injection, schedule: Q01DX001 (ip), vehicle: water 101 % of control | dose: 27.5 mg/kg/injection, schedule: Q01DX001 (ip), vehicle: water 104 % of control | dose: 45.0 mg/kg/injection, schedule: Q01DX001 (ip), vehicle: water 98 % of control | dose: 50.0 mg/kg/injection, schedule: Q01DX001 (ip), vehicle: water 91 % of control | dose: 100.0 mg/kg/injection, schedule: Q01DX001 (ip), vehicle: water 91 % of control | dose: 200.0 mg/kg/injection, schedule: Q01DX001 (ip), vehicle: water 91 % of control | dose: 400.0 mg/kg/injection, schedule: Q01DX001 (ip), vehicle: water 97 % of control

Oc1cccc(/C=N/NC(=S)Nc2ccccc2)c1
inactive: [11] 104 % of control | [12] 96 % of control | [13] 93 % of control

COCNC(=S)N/N=C/c1ccccn1
inactive: dose: 12.5 mg/kg/injection, schedule: Q01DX009 (ip), vehicle: saline with Tween-80 124 % of control | [9] 124 % of control

CC(C)(CO)N=Cc1ccccc1Cl
inactive: [2] 102 % of control | [4] 100 % of control | [6] 100 % of control

COC(=O)/C=C/c1cccnc1
inactive: dose: 50.0 mg/kg/injection, schedule: Q04DX003 (ip), vehicle: Klucel (hydroxypropylcellulose) (HPC) 103 % of control | [14] 93 % of control | [15] 103 % of control

CC(=O)CC(C)=Nc1ccc(Cl)cc1
inactive: [11] 97 % of control | [14] 96 % of control | [12] 105 % of control | [15] 110 % of control | [13] 108 % of control | dose: 400.0 mg/kg/injection, schedule: Q04DX003 (ip), vehicle: Klucel (hydroxypropylcellulose) (HPC) 104 % of control

CCN(CC)CCNc1ccc(N=Nc2ccc(SC)cc2)c2ccccc12
inactive: dose: 6.25 mg/kg/injection, schedule: Q01DX015 (ip), vehicle: carboxymethylcellulose (CMC) 91 % of control | dose: 12.5 mg/kg/injection, schedule: Q01DX015 (ip), vehicle: carboxymethylcellulose (CMC) 93 % of control | dose: 25.0 mg/kg/injection, schedule: Q01DX015 (ip), vehicle: carboxymethylcellulose (CMC) 86 % of control | [9] 94 % of control | dose: 50.0 mg/kg/injection, schedule: Q01DX015 (ip), vehicle: carboxymethylcellulose (CMC) 87 % of control | [8] 96 % of control | [10] 103 % of control | [3] 89 % of control | [5] 88 % of control

O=[N+]([O-])c1cc([N+](=O)[O-])c(/C=C/c2cccc(OCc3ccccc3)c2)cc1/C=C/c1cccc(OCc2ccccc2)c1
inactive: dose: 75.0 mg/kg/injection, schedule: Q01DX001 (ip), vehicle: saline 91 % of control | dose: 150.0 mg/kg/injection, schedule: Q01DX001 (ip), vehicle: saline 89 % of control | dose: 300.0 mg/kg/injection, schedule: Q01DX001 (ip), vehicle: saline 91 % of control

CSc1ccc(NC(=O)Nc2cccc(C(C)=O)c2)cc1
inactive: [11] 97 % of control | [12] 94 % of control | [13] 91 % of control

Source: PubChem BioAssay AID248 (DTP/NCI, 2004)
